Measurements from US9023789B2, “Amylin analogs and pharmaceutical compositions thereof” (Novo Nordisk A/S, priority 2012, dated 2015).
Where two headings read alike, the source gives them in different places.

Legend:
[1] = ASSAY (IV) determination of solubility; format: physicochemical
How it was run: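 Polypeptide stock in water ([…]) was mixed 1:1 with 100 mM buffers: glycylglycine at pH 3.0, 4.0, 5.0 and bistrispropane at pH 6.0, 6.5, 7.0, 7.5, 8.0. After 18 hours at room temperature, samples were centrifuged and polypeptide concentration measured by UPLC.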

[2] = molecular target: T1, human amylin receptor (membranes from Amylin 3(a)/CRE-luc cells) (Homo sapiens, UniProt O60896+P30988); assay: ASSAY (V) binding to the human amylin receptor (SPA, 125I-rat amylin);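 note: competition binding of cell membranes (35 ng/µL) mixed with SPA beads in 384-well plates at 40 µL total volume, read by scintillation counting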
T1 construct: expressed in transfected cells
T1 sequence (P30988 25-474): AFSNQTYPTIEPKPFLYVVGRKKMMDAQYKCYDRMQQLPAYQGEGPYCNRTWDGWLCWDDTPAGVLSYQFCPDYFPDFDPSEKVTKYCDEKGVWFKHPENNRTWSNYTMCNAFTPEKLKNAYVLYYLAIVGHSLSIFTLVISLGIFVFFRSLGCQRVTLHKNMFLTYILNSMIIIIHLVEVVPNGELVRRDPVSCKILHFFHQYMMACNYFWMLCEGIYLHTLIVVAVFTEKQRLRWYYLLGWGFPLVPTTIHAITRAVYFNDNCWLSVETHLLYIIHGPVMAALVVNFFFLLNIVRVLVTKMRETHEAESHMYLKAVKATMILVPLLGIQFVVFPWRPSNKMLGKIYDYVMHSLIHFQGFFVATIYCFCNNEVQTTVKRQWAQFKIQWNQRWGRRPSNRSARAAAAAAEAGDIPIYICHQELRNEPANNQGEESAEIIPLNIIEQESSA
T1 sequence (O60896 24-148 partner): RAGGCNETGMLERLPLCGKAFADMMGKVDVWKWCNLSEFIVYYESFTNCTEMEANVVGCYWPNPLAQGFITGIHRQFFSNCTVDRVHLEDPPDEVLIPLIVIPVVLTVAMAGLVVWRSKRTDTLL

[3] = molecular target: T2, rat amylin receptor (rat calcitonin receptor + rat RAMP 3) (Rattus norvegicus, UniProt P32214+Q9JJ73); assay: ASSAY (VI) binding to the rat amylin receptor; settings: for IC50: binding to rat amylin receptor, read-out: rAmylin-R bind IC50
T2 construct: expressed in transfected cells; host or cells: BHK tk'ts 13 (transient, FuGENE 6), membranes
T2 sequence (P32214 25-479 isoform P32214-2 limits assumed): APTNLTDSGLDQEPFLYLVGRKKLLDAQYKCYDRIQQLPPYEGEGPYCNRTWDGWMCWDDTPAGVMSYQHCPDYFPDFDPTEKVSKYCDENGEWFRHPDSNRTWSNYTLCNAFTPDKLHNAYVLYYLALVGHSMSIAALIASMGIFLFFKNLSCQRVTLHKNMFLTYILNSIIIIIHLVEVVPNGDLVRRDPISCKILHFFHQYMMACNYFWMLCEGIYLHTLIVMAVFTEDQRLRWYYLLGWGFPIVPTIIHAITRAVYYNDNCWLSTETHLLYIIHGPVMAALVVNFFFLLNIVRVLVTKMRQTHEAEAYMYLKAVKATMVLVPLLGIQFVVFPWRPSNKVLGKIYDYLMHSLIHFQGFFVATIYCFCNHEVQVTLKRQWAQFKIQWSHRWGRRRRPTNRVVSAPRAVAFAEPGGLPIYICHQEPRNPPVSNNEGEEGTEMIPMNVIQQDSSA
T2 sequence (Q9JJ73 23-147 partner): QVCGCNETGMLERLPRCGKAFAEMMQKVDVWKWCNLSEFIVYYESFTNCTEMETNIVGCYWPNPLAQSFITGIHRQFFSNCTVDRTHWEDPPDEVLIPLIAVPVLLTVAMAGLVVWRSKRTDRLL
How it was run: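 This assay measured binding to the rat amylin receptor. BHK tk′ts 13 cells were transiently transfected with the rat calcitonin receptor using FuGENE® 6 (Roche), following the manufacturer's recommendations. About 48 hours after transfection, the cells were harvested and membranes were prepared from them for the binding determination.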

rat calcitonin receptor = molecular target: T3, rat calcitonin receptor (Rattus norvegicus, UniProt P32214); assay: ASSAY (VIII) binding to the rat calcitonin receptor; settings: Table 7, read-out: rCTR bind IC50
T3 construct: expressed in transfected cells; host or cells: BHK tk'ts 13 (transient, FuGENE 6), membranes
T3 sequence (P32214 25-479 isoform P32214-2 limits assumed): T2 sequence (P32214 25-479 isoform P32214-2 limits assumed)
How it was run: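 Transfect BHK tk′ts 13 cells transiently with rat calcitonin receptor, culture in DMEM containing 10% FBS, collect cells about 48 hours later, then prepare membranes.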

[4] = bistrispropane buffer, pH 6.5, read-out: Solubility pH 6.5 Concentration
[5] = bistrispropane buffer, pH 7.5, read-out: Solubility pH 7.5 Concentration
[6] = bistrispropane buffer, pH 6.0, read-out: Solubility pH 6.0 Concentration
[7] = bistrispropane buffer, pH 7.0, read-out: Solubility pH 7.0 Concentration
[8] = bistrispropane buffer, pH 8.0, read-out: Solubility pH 8.0 Concentration
[9] = glycylglycine buffer, pH 3.0, read-out: Solubility pH 3.0 Concentration
[10] = glycylglycine buffer, pH 4.0, read-out: Solubility pH 4.0 Concentration
[11] = glycylglycine buffer, pH 5.0, read-out: Solubility pH 5.0 Concentration
[12] = Table 5, selectivity, hCTR bind IC50 / hAmylin-R bind IC50
[13] = Table 5a, selectivity, hCTR bind IC50 / hAmylin-R bind IC50
[14] = Table 5b, selectivity, hCTR bind IC50 / hAmylin-R bind IC50
[15] = Table 5c, selectivity, hCTR bind IC50 / hAmylin-R bind IC50
[16] = Table 7, human binding selectivity, included for comparison
[17] = Table 7a (preferred compounds), human binding selectivity, included for comparison
[18] = ratio of human calcitonin receptor binding IC50 to human amylin receptor binding IC50
[19] = Table 7, rat binding selectivity, rCTR IC50 / rAmylin-R IC50
[20] = Table 7a (preferred compounds), rat binding selectivity, rCTR IC50 / rAmylin-R IC50
[21] = ratio of rCTR bind IC50 to rAmylin-R bind IC50

| SMILES | solubility at 18 h [1, 4] [µM] | solubility at 18 h [1, 5] [µM] | solubility at 18 h [1, 6] [µM] | solubility at 18 h [1, 7] [µM] | solubility at 18 h [1, 8] [µM] | solubility at 18 h [1, 9] [µM] | solubility at 18 h [1, 10] [µM] | solubility at 18 h [1, 11] [µM] | Ratio hCT/hAmylin binding [2, 12] | Ratio hCT/hAmylin binding [2, 13] | Ratio hCT/hAmylin binding [2, 14] | Ratio hCT/hAmylin binding [2, 15] | Ratio hCT/hAmylin binding [2, 16] | Ratio hCT/hAmylin binding [2, 17] | Ratio hCT/hAmylin binding [2, 18] | IC50 ([3]; Table 7) [nM] | Ratio rCT/rAmylin binding [3, 19] | Ratio rCT/rAmylin binding [3, 20] | Ratio rCT/rAmylin binding [3, 21] | IC50 (rat calcitonin receptor) [nM] |
| --- | --- | --- | --- | --- | --- | --- | --- | --- | --- | --- | --- | --- | --- | --- | --- | --- | --- | --- | --- | --- |
| CC[C@H](C)[C@H](NC(=O)[C@H](C)NC(=O)CNC(=O)[C@H](Cc1ccccc1)NC(=O)[C@H](CC(N)=O)NC(=O)[C@@H]1CCCN1C(=O)[C@H](CO)NC(=O)[C@H](CO)NC(=O)[C@H](Cc1c[nH]cn1)NC(=O)[C@H](CCCNC(=N)N)NC(=O)[C@H](CC(C)C)NC(=O)[C@H](Cc1ccccc1)NC(=O)[C@H](CC(N)=O)NC(=O)[C@H](C)NC(=O)[C@H](CC(C)C)NC(=O)[C@H](CCCNC(=N)N)NC(=O)[C@H](CCC(N)=O)NC(=O)[C@@H](NC(=O)[C@H](C)NC(=O)[C@@H]1CSSC[C@H](NC(=O)[C@@H](N)CCCCNC(=O)COCCOCCNC(=O)COCCOCCNC(=O)CC[C@H](NC(=O)CCCCCCCCCCCCCCCCCCC(=O)O)C(=O)O)C(=O)N[C@@H](CC(N)=O)C(=O)N[C@@H]([C@@H](C)O)C(=O)N[C@@H](C)C(=O)N[C@@H]([C@@H](C)O)C(=O)N1)[C@@H](C)O)C(=O)N1CCC[C@H]1C(=O)N[C@@H](CO)C(=O)N[C@@H](CO)C(=O)N[C@H](C(=O)N[C@@H](CC(N)=O)C(=O)N[C@H](C(=O)NCC(=O)N[C@@H](CO)C(=O)N[C@@H](CCC(=O)O)C(=O)N[C@H](C(=O)N[C@@H](Cc1ccc(O)cc1)C(N)=O)[C@@H](C)O)C(C)C)[C@@H](C)O [Example 25] | ≥ 200 | ≥ 200 | ≥ 200 | ≥ 200 | ≥ 200 | ≥ 200 | ≥ 200 | ≥ 200 | 56.5 | 56.5 | 56.5 | 56.5 | 56.5 | 56.5 | 56.5 | 3.48 | 37.7 | 37.7 | 37.7 | 131 |
| CC[C@H](C)[C@H](NC(=O)[C@H](C)NC(=O)CNC(=O)[C@H](Cc1ccccc1)NC(=O)[C@H](CC(N)=O)NC(=O)[C@@H]1CCCN1C(=O)[C@H](CO)NC(=O)[C@H](CO)NC(=O)[C@H](Cc1c[nH]cn1)NC(=O)[C@H](CCCNC(=N)N)NC(=O)[C@H](CC(C)C)NC(=O)[C@H](Cc1ccccc1)NC(=O)[C@H](CCC(=O)O)NC(=O)[C@H](C)NC(=O)[C@H](CC(C)C)NC(=O)[C@H](CCCNC(=N)N)NC(=O)[C@H](CCC(N)=O)NC(=O)[C@@H](NC(=O)[C@H](C)NC(=O)[C@@H]1CSSC[C@H](NC(=O)[C@H](CCCCN)NC(=O)COCCOCCNC(=O)COCCOCCNC(=O)CC[C@H](NC(=O)CCCCCCCCCCCCCCCCCCC(=O)O)C(=O)O)C(=O)N[C@@H](CC(N)=O)C(=O)N[C@@H]([C@@H](C)O)C(=O)N[C@@H](C)C(=O)N[C@@H]([C@@H](C)O)C(=O)N1)[C@@H](C)O)C(=O)N1CCC[C@H]1C(=O)N[C@@H](CO)C(=O)N[C@@H](CO)C(=O)N[C@H](C(=O)N[C@@H](CC(N)=O)C(=O)N[C@H](C(=O)NCC(=O)N[C@@H](CO)C(=O)N[C@@H](CC(N)=O)C(=O)N[C@H](C(=O)N[C@@H](Cc1ccc(O)cc1)C(N)=O)[C@@H](C)O)C(C)C)[C@@H](C)O [Example 19] | ≥ 200 | ≥ 200 | ≥ 200 | ≥ 200 | ≥ 200 | ≥ 200 | ≥ 200 | ≥ 200 | 36.7 | 36.7 | 36.7 | 36.7 | 36.7 | 36.7 | 36.7 | 1.02 | 93.6 | 93.6 | 93.6 | 95.6 |
| CC[C@H](C)[C@H](NC(=O)[C@H](C)NC(=O)CNC(=O)[C@H](Cc1ccccc1)NC(=O)[C@H](CC(N)=O)NC(=O)[C@@H]1CCCN1C(=O)[C@H](CO)NC(=O)[C@H](CO)NC(=O)[C@H](Cc1c[nH]cn1)NC(=O)[C@H](CCCNC(=N)N)NC(=O)[C@H](CC(C)C)NC(=O)[C@H](Cc1ccccc1)NC(=O)[C@H](CC(N)=O)NC(=O)[C@H](C)NC(=O)[C@H](CC(C)C)NC(=O)[C@H](CCCNC(=N)N)NC(=O)[C@H](CCC(N)=O)NC(=O)[C@@H](NC(=O)[C@H](C)NC(=O)[C@@H]1CSSC[C@H](NC(=O)[C@@H](N)CCCCNC(=O)CC[C@H](NC(=O)CCCCCCCCCCCCCCCCCCC(=O)O)C(=O)O)C(=O)N[C@@H](CC(N)=O)C(=O)N[C@@H]([C@@H](C)O)C(=O)N[C@@H](C)C(=O)N[C@@H]([C@@H](C)O)C(=O)N1)[C@@H](C)O)C(=O)N1CCC[C@H]1C(=O)N[C@@H](CO)C(=O)N[C@@H](CO)C(=O)N[C@H](C(=O)N[C@@H](CC(N)=O)C(=O)N[C@H](C(=O)NCC(=O)N[C@@H](CO)C(=O)N[C@@H](CCC(=O)O)C(=O)N[C@H](C(=O)N[C@@H](Cc1ccc(O)cc1)C(N)=O)[C@@H](C)O)C(C)C)[C@@H](C)O [Example 27] | ≥ 200 | ≥ 200 | ≥ 200 | ≥ 200 | ≥ 200 | ≥ 200 | ≥ 200 | ≥ 200 | 41.3 | 41.3 | 41.3 | 41.3 | 41.3 | 41.3 | 41.3 | 0.614 | 146.8 | 146.8 | 146.8 | 90.2 |
